In ChEMBL document CHEMBL4308841, “Synthesis, in vitro antiproliferative activity, and kinase inhibitory effects of pyrazole-containing diarylureas and diarylamides” (Eur J Med Chem, 2018):

How the values were obtained:
Type in all cases: functional
CCRF-CEM = test: Growth inhibition of human CCRF-CEM cells assessed as cell growth at 10 uM incubated for 48 hrs by sulforhodamine B assay relative to control; conditions: read-out: Activity
MOLT-4 = test: Growth inhibition of human MOLT4 cells assessed as cell growth at 10 uM incubated for 48 hrs by sulforhodamine B assay relative to control; conditions: MOLT-4, 48 h, read-out: Activity
A549 = test: Growth inhibition of human A549/ATCC cells assessed as cell growth at 10 uM incubated for 48 hrs by sulforhodamine B assay relative to control; conditions: A549, 48 h, read-out: Activity
NCI-H226 = test: Growth inhibition of human NCI-H226 cells assessed as cell growth at 10 uM incubated for 48 hrs by sulforhodamine B assay relative to control; conditions: NCI-H226, 48 h, read-out: Activity
NCI-H23 = test: Growth inhibition of human NCI-H23 cells assessed as cell growth at 10 uM incubated for 48 hrs by sulforhodamine B assay relative to control; conditions: NCI-H23, 48 h, read-out: Activity
NCI-H322M = test: Growth inhibition of human NCI-H322M cells assessed as cell growth at 10 uM incubated for 48 hrs by sulforhodamine B assay relative to control; conditions: read-out: Activity
NCI-H460 = test: Growth inhibition of human NCI-H460 cells assessed as cell growth at 10 uM incubated for 48 hrs by sulforhodamine B assay relative to control; conditions: NCI-H460, 48 h, read-out: Activity
COLO 205 = test: Growth inhibition of human COLO205 cells assessed as cell growth at 10 uM incubated for 48 hrs by sulforhodamine B assay relative to control; conditions: COLO 205, 48 h, read-out: Activity
HCT-116 = test: Growth inhibition of human HCT116 cells assessed as cell growth at 10 uM incubated for 48 hrs by sulforhodamine B assay relative to control; conditions: HCT-116, 48 h, read-out: Activity
KM12 = test: Growth inhibition of human KM12 cells assessed as cell growth at 10 uM incubated for 48 hrs by sulforhodamine B assay relative to control; conditions: KM12, 48 h, read-out: Activity
SW-620 = test: Growth inhibition of human SW620 cells assessed as cell growth at 10 uM incubated for 48 hrs by sulforhodamine B assay relative to control; conditions: SW-620, 48 h, read-out: Activity
SF-539 = test: Growth inhibition of human SF539 cells assessed as cell growth at 10 uM incubated for 48 hrs by sulforhodamine B assay relative to control; conditions: SF-539, 48 h, read-out: Activity
SNB-75 = test: Growth inhibition of human SNB75 cells assessed as cell growth at 10 uM incubated for 48 hrs by sulforhodamine B assay relative to control; conditions: SNB-75, 48 h, read-out: Activity
U-251 = test: Growth inhibition of human U251 cells assessed as cell growth at 10 uM incubated for 48 hrs by sulforhodamine B assay relative to control; conditions: U-251, 48 h, read-out: Activity
SK-MEL-28 = test: Growth inhibition of human SK-MEL-28 cells assessed as cell growth at 10 uM incubated for 48 hrs by sulforhodamine B assay relative to control; conditions: SK-MEL-28, 48 h, read-out: Activity
SK-MEL-5 = test: Growth inhibition of human SK-MEL-5 cells assessed as cell growth at 10 uM incubated for 48 hrs by sulforhodamine B assay relative to control; conditions: SK-MEL-5, 48 h, read-out: Activity
UACC-62 = test: Growth inhibition of human UACC62 cells assessed as cell growth at 10 uM incubated for 48 hrs by sulforhodamine B assay relative to control; conditions: UACC-62, 48 h, read-out: Activity
IGROV-1 = test: Growth inhibition of human IGROV1 cells assessed as cell growth at 10 uM incubated for 48 hrs by sulforhodamine B assay relative to control; conditions: IGROV-1, 48 h, read-out: Activity
OVCAR-3 = test: Growth inhibition of human OVCAR3 cells assessed as cell growth at 10 uM incubated for 48 hrs by sulforhodamine B assay relative to control; conditions: OVCAR-3, 48 h, read-out: Activity
OVCAR-5 = test: Growth inhibition of human OVCAR5 cells assessed as cell growth at 10 uM incubated for 48 hrs by sulforhodamine B assay relative to control; conditions: OVCAR-5, 48 h, read-out: Activity
786-0 = test: Growth inhibition of human 786-0 cells assessed as cell growth at 10 uM incubated for 48 hrs by sulforhodamine B assay relative to control; conditions: 786-0, 48 h, read-out: Activity
A498 = test: Growth inhibition of human A498 cells assessed as cell growth at 10 uM incubated for 48 hrs by sulforhodamine B assay relative to control; conditions: A498, 48 h, read-out: Activity
ACHN = test: Growth inhibition of human ACHN cells assessed as cell growth at 10 uM incubated for 48 hrs by sulforhodamine B assay relative to control; conditions: read-out: Activity
CAKI-1 = test: Growth inhibition of human Caki1 cells assessed as cell growth at 10 uM incubated for 48 hrs by sulforhodamine B assay relative to control; conditions: CAKI-1, 48 h, read-out: Activity
RXF 393 = test: Growth inhibition of human RXF393 cells assessed as cell growth at 10 uM incubated for 48 hrs by sulforhodamine B assay relative to control; conditions: RXF 393, 48 h, read-out: Activity
SN12C = test: Growth inhibition of human SN12C cells assessed as cell growth at 10 uM incubated for 48 hrs by sulforhodamine B assay relative to control; conditions: read-out: Activity
UO-31 = test: Growth inhibition of human UO31 cells assessed as cell growth at 10 uM incubated for 48 hrs by sulforhodamine B assay relative to control; conditions: UO-31, 48 h, read-out: Activity
PC-3 = test: Growth inhibition of human PC3 cells assessed as cell growth at 10 uM incubated for 48 hrs by sulforhodamine B assay relative to control; conditions: PC-3, 48 h, read-out: Activity
DU-145 = test: Growth inhibition of human DU145 cells assessed as cell growth at 10 uM incubated for 48 hrs by sulforhodamine B assay relative to control; conditions: DU-145, 48 h, read-out: Activity
MCF7 = test: Growth inhibition of human MCF7 cells assessed as cell growth at 10 uM incubated for 48 hrs by sulforhodamine B assay relative to control; conditions: MCF7, 48 h, read-out: Activity
MDA-MB-231 = test: Growth inhibition of human MDA-MB-231 cells assessed as cell growth at 10 uM incubated for 48 hrs by sulforhodamine B assay relative to control; conditions: MDA-MB-231, 48 h, read-out: Activity
BT-549 = test: Growth inhibition of human BT549 cells assessed as cell growth at 10 uM incubated for 48 hrs by sulforhodamine B assay relative to control; conditions: BT-549, 48 h, read-out: Activity
T47D = test: Growth inhibition of human T47D cells assessed as cell growth at 10 uM incubated for 48 hrs by sulforhodamine B assay relative to control; conditions: read-out: Activity

Structure (SMILES) | growth at 10 µM (CCRF-CEM) | growth at 10 µM (MOLT-4) | growth at 10 µM (A549) | growth at 10 µM (NCI-H226) | growth at 10 µM (NCI-H23) | growth at 10 µM (NCI-H322M) | growth at 10 µM (NCI-H460) | growth at 10 µM (COLO 205) | growth at 10 µM (HCT-116) | growth at 10 µM (KM12) | growth at 10 µM (SW-620) | growth at 10 µM (SF-539) | growth at 10 µM (SNB-75) | growth at 10 µM (U-251) | growth at 10 µM (SK-MEL-28) | growth at 10 µM (SK-MEL-5) | growth at 10 µM (UACC-62) | growth at 10 µM (IGROV-1) | growth at 10 µM (OVCAR-3) | growth at 10 µM (OVCAR-5) | also measured
COc1cc(Cl)cc(-c2nn(-c3cccc(NC(=O)Nc4ccc(Cl)c(Cl)c4)c3)cc2-c2ccncc2)c1 | 5.73% | -16.1% | 11.3% | 7.27% | 5.72% | 32.3% | 3.1% | -70.3% | 9.22% | 14.3% | 13.3% | 20.9% | 16.2% | 3.01% | 23.2% | 3.51% | 4.38% | 36.7% | 4.11% | 37.8% | growth at 10 µM (786-0): 19.6%; growth at 10 µM (A498): -9.54%; growth at 10 µM (ACHN): 9.65%; growth at 10 µM (CAKI-1): 7.49%; growth at 10 µM (RXF 393): 4.46%; growth at 10 µM (SN12C): 15.5%; growth at 10 µM (UO-31): 0.64%; growth at 10 µM (PC-3): -5.03%; growth at 10 µM (DU-145): 12.1%; growth at 10 µM (MCF7): 4.66%; growth at 10 µM (MDA-MB-231): -21%; growth at 10 µM (BT-549): 29.4%; growth at 10 µM (T47D): 18.6%
O=C(Nc1cccc(-n2cc(-c3ccncc3)c(-c3cc(O)cc(Cl)c3)n2)c1)c1cc(C(F)(F)F)cc(C(F)(F)F)c1 | 26.9% | 19.5% | 27.3% | 96% | 42.7% | 74.1% | 19.9% | 38.7% | 24.6% | 21.2% | 61% | 75.5% | 52.7% | 37.2% | 63.6% | 64.5% | 69.3% | 73% | 15.2% | 70.7% | growth at 10 µM (786-0): 55.1%; growth at 10 µM (A498): 40.3%; growth at 10 µM (ACHN): 37.7%; growth at 10 µM (CAKI-1): 58.5%; growth at 10 µM (RXF 393): -10.3%; growth at 10 µM (SN12C): 50.3%; growth at 10 µM (UO-31): 49.1%; growth at 10 µM (PC-3): 21.7%; growth at 10 µM (DU-145): 62.1%; growth at 10 µM (MCF7): 23%; growth at 10 µM (MDA-MB-231): -34.6%; growth at 10 µM (BT-549): 73.4%; growth at 10 µM (T47D): 26.3%
